Data on two substances can be found in PMC5117898 (International Journal of Nanomedicine, 2016).

Series [1] is described as follows: Dex loading and release study in simulated perilymph. Conditions: dialysis loading, PCA 30 mg and Dex 6 mg in DMSO. Type of series: physicochemical.
For the next series, the system named is HEI-OC1 cells. As to the kind of experiment: Cellular uptake test of CPPs. It is filed as cell-based, mouse. As to conditions: rhodamine-labeled peptides 0.025 mg/mL, flow cytometry.

Take PHEA-g-C18-Arg8 [PCA nanoparticles]: in series [1], the “percentage of Dex loading” value is recorded as 16.8%±3.2.
For RRRRRRRR [Arg8], in the series on HEI-OC1 cells, the “fluorescence intensity fold higher compared with Penetratin” value is on record as 18.8±3.2 fold and the “fluorescence intensity fold higher compared with Tat” value is given as 16.1±1.3 fold.
